Where “and” joins values, the source holds several entries; their conditions need not be identical. Identical values can stand only once. Toxic doses and inconclusive results are not listed. Rule as the data show it: active = T/C of 150% or more; inactive = T/C below 125%.
Tested on: L1210 leukemia ip in BDF1 mice, survival T/C
Test: NCI In Vivo Anticancer Drug Screen. Data for tumor model L1210 Leukemia (intraperitoneal) in B6D2F1 (BDF1) mice
Conditions: endpoint: mean survival time, higher = longer survival
Summary of the method: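 Value reflects the ratio of survival in compound-treated mice to survival in vehicle-treated controls, with both groups carrying the same transplanted tumor.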

[1] = dose: 100.0 mg/kg/injection, schedule: Q01DX009 (ip), vehicle: Klucel (hydroxypropylcellulose) (HPC)
[2] = dose: 200.0 mg/kg/injection, schedule: Q01DX009 (ip), vehicle: Klucel (hydroxypropylcellulose) (HPC)
[3] = dose: 12.5 mg/kg/injection, schedule: Q01DX009 (ip), vehicle: saline with Tween-80
[4] = dose: 25.0 mg/kg/injection, schedule: Q01DX009 (ip), vehicle: saline with Tween-80
[5] = dose: 100.0 mg/kg/injection, schedule: Q01DX009 (ip), vehicle: saline with Tween-80
[6] = dose: 200.0 mg/kg/injection, schedule: Q01DX009 (ip), vehicle: saline with Tween-80
[7] = dose: 50.0 mg/kg/injection, schedule: Q01DX001 (ip), vehicle: carboxymethylcellulose (CMC)
[8] = dose: 100.0 mg/kg/injection, schedule: Q01DX001 (ip), vehicle: carboxymethylcellulose (CMC)
[9] = dose: 200.0 mg/kg/injection, schedule: Q01DX001 (ip), vehicle: carboxymethylcellulose (CMC)
[10] = dose: 400.0 mg/kg/injection, schedule: Q01DX001 (ip), vehicle: carboxymethylcellulose (CMC)
[11] = dose: 400.0 mg/kg/injection, schedule: Q01DX009 (ip), vehicle: Klucel (hydroxypropylcellulose) (HPC)
[12] = dose: 100.0 mg/kg/injection, schedule: Q01DX001 (ip), vehicle: saline
[13] = dose: 200.0 mg/kg/injection, schedule: Q01DX001 (ip), vehicle: saline
[14] = dose: 400.0 mg/kg/injection, schedule: Q01DX001 (ip), vehicle: saline
[15] = dose: 75.0 mg/kg/injection, schedule: Q01DX001 (ip), vehicle: saline

Measured: T/C

Cc1cnc(-n2cc(C)c(-c3ccccc3O)n2)nc1-c1ccccc1O
inactive: dose: 100.0 mg/kg/injection, schedule: Q04DX002 (ip), vehicle: Klucel (hydroxypropylcellulose) (HPC) 96 % of control | dose: 200.0 mg/kg/injection, schedule: Q04DX002 (ip), vehicle: Klucel (hydroxypropylcellulose) (HPC) 88 % of control | dose: 400.0 mg/kg/injection, schedule: Q04DX002 (ip), vehicle: Klucel (hydroxypropylcellulose) (HPC) 100 % of control

CCCCCCCCCCCCCCCCCC(=O)[O][Pb]([CH3])([CH3])[CH3]
inactive: dose: 25.0 mg/kg/injection, schedule: Q04DX002 (ip), vehicle: Klucel (hydroxypropylcellulose) (HPC) 97 % of control

Oc1ccccc1OCCOCCCl
active: dose: 400.0 mg/kg/injection, schedule: Q04DX002 (sc), vehicle: olive oil, sesame oil, peanut oil 246 % of control
inactive: dose: 100.0 mg/kg/injection, schedule: Q04DX002 (sc), vehicle: olive oil, sesame oil, peanut oil 93 % of control | dose: 200.0 mg/kg/injection, schedule: Q04DX002 (sc), vehicle: olive oil, sesame oil, peanut oil 101 % of control

CCOc1ccccc1NC(=S)NC1CCCCC1
inactive: [1] 97 % of control | [2] 100 % of control

CCOC(=O)C(=CNc1ccc(OC)cc1[N+](=O)[O-])C(=O)OCC
inactive: [3] 97 % of control | [4] 90 % of control | [5] 94 % of control and 90 % of control | dose: 100.0 mg/kg/injection, schedule: Q04DX002 (ip), vehicle: saline with Tween-80 95 % of control | [6] 105 % of control | dose: 200.0 mg/kg/injection, schedule: Q04DX002 (ip), vehicle: saline with Tween-80 88 % of control | dose: 400.0 mg/kg/injection, schedule: Q04DX002 (ip), vehicle: saline with Tween-80 92 % of control

Cc1ccnc([N+](=O)[O-])c1
inactive: [5] 103 % of control | [6] 92 % of control | dose: 400.0 mg/kg/injection, schedule: Q01DX009 (ip), vehicle: saline with Tween-80 106 % of control

C[n+]1ncc2ccccc2c1Cc1ccc(Br)cc1
inactive: dose: 6.25 mg/kg/injection, schedule: Q01DX009 (ip), vehicle: other 98 % of control and 103 % of control | dose: 6.25 mg/kg/injection, schedule: Q04DX002 (ip), vehicle: carboxymethylcellulose (CMC) 91 % of control | dose: 12.5 mg/kg/injection, schedule: Q01DX009 (ip), vehicle: other 108 % of control and 86 % of control | dose: 12.5 mg/kg/injection, schedule: Q04DX002 (ip), vehicle: carboxymethylcellulose (CMC) 106 % of control | dose: 25.0 mg/kg/injection, schedule: Q04DX002 (ip), vehicle: carboxymethylcellulose (CMC) 91 % of control | dose: 25.0 mg/kg/injection, schedule: Q04DX002 (ip), vehicle: other 100 % of control and 90 % of control

COc1ccccc1/C=C1\SC(=S)NC1=O
inactive: [7] 92 % of control | [8] 101 % of control | [9] 106 % of control | [10] 90 % of control

NC(=O)NC1CC1(c1ccccc1)c1ccccc1 (stereo not given)
inactive: dose: 42.0 mg/kg/injection, schedule: Q01DX009 (ip), vehicle: other 105 % of control | dose: 72.0 mg/kg/injection, schedule: Q01DX009 (ip), vehicle: other 111 % of control | dose: 120.0 mg/kg/injection, schedule: Q01DX009 (ip), vehicle: other 105 % of control | dose: 200.0 mg/kg/injection, schedule: Q01DX009 (ip), vehicle: other 93 % of control

NC(=O)c1cc([N+](=O)[O-])ccc1N1CC[N+](CCCl)=N1
inactive: dose: 100.0 mg/kg/injection, schedule: Q01DX001 (ip), vehicle: saline with Tween-80 100 % of control | dose: 200.0 mg/kg/injection, schedule: Q01DX001 (ip), vehicle: saline with Tween-80 91 % of control | dose: 400.0 mg/kg/injection, schedule: Q01DX001 (ip), vehicle: saline with Tween-80 90 % of control

COc1ccc([N+](=O)[O-])cc1NC(=O)Nc1ccc(F)c([N+](=O)[O-])c1
inactive: [1] 98 % of control | [2] 95 % of control | [11] 95 % of control

C1CCc2c(sc3c2CCCC3)C1
inactive: [7] 98 % of control | [8] 104 % of control | [9] 98 % of control | [10] 107 % of control

CNc1cc(C(=O)O)nc(NC)n1
inactive: dose: 25.0 mg/kg/injection, schedule: Q01DX Z (ip), vehicle: saline 102 % of control | dose: 50.0 mg/kg/injection, schedule: Q01DX Z (ip), vehicle: saline 98 % of control

Cc1c(C(=O)/C=C/c2ccccc2)cc([N+](=O)[O-])cc1[N+](=O)[O-]
inactive: dose: 50.0 mg/kg/injection, schedule: Q01DX001 (ip), vehicle: saline 92 % of control | [12] 98 % of control | [13] 100 % of control | [14] 93 % of control

c1ccc2c(Nc3ccc(C4=NCCN4)cc3)nnc(Nc3ccc(C4=NCCN4)cc3)c2c1
active: dose: 84.0 mg/kg/injection, schedule: Q01DX Z (ip), vehicle: carboxymethylcellulose (CMC) 170 % of control
inactive: dose: 38.0 mg/kg/injection, schedule: Q01DX Z (ip), vehicle: carboxymethylcellulose (CMC) 110 % of control | dose: 62.5 mg/kg/injection, schedule: Q01DX Z (oral), vehicle: saline 103 % of control | dose: 63.0 mg/kg/injection, schedule: Q01DX Z (oral), vehicle: water 95 % of control | dose: 125.0 mg/kg/injection, schedule: Q01DX Z (oral), vehicle: saline 103 % of control | dose: 125.0 mg/kg/injection, schedule: Q01DX Z (oral), vehicle: water 87 % of control | dose: 187.5 mg/kg/injection, schedule: Q01DX Z (ip), vehicle: carboxymethylcellulose (CMC) 119 % of control | dose: 250.0 mg/kg/injection, schedule: Q01DX Z (oral), vehicle: saline 105 % of control | dose: 500.0 mg/kg/injection, schedule: Q01DX Z (oral), vehicle: water 87 % of control

CC(O)(C(=O)O)c1ccccc1O (stereo not given)
inactive: [15] 98 % of control | dose: 150.0 mg/kg/injection, schedule: Q01DX001 (ip), vehicle: saline 96 % of control | dose: 300.0 mg/kg/injection, schedule: Q01DX001 (ip), vehicle: saline 93 % of control

CN1CCCCC1c1ccccc1 (stereo not given)
inactive: [15] 103 % of control

CCOc1ccccc1NC(=O)Nc1cccc2ccccc12
inactive: [1] 104 % of control | dose: 100.0 mg/kg/injection, schedule: Q04DX003 (ip), vehicle: Klucel (hydroxypropylcellulose) (HPC) 90 % of control | [2] 96 % of control | dose: 200.0 mg/kg/injection, schedule: Q04DX003 (ip), vehicle: Klucel (hydroxypropylcellulose) (HPC) 91 % of control | [11] 102 % of control | dose: 400.0 mg/kg/injection, schedule: Q04DX003 (ip), vehicle: Klucel (hydroxypropylcellulose) (HPC) 88 % of control

CN(C)[C@@H]1C(=O)C(C(=O)NCNc2nc(=S)c3[nH]cnc3[nH]2)=C(O)[C@@]2(O)C(=O)C3=C(O)c4c(O)cccc4[C@@](C)(O)[C@H]3C[C@@H]12
inactive: dose: 75.0 mg/kg/injection, schedule: Q01DX Z (ip), vehicle: carboxymethylcellulose (CMC) 119 % of control | dose: 125.0 mg/kg/injection, schedule: Q01DX Z (ip), vehicle: carboxymethylcellulose (CMC) 121 % of control | dose: 250.0 mg/kg/injection, schedule: Q01DX Z (ip), vehicle: carboxymethylcellulose (CMC) 95 % of control

BrCC1CCCCO1 (stereo not given)
inactive: [3] 94 % of control | dose: 12.5 mg/kg/injection, schedule: Q04DX003 (ip), vehicle: saline with Tween-80 108 % of control | [4] 99 % of control | dose: 25.0 mg/kg/injection, schedule: Q04DX003 (ip), vehicle: saline with Tween-80 108 % of control | dose: 50.0 mg/kg/injection, schedule: Q01DX009 (ip), vehicle: saline with Tween-80 99 % of control | dose: 50.0 mg/kg/injection, schedule: Q04DX003 (ip), vehicle: saline with Tween-80 97 % of control

NC1C2CC3CC1CC(C2)O3 (stereo not given)
inactive: dose: 25.0 mg/kg/injection, schedule: Q04DX002 (ip), vehicle: saline 103 % of control | dose: 50.0 mg/kg/injection, schedule: Q04DX002 (ip), vehicle: saline 106 % of control | dose: 100.0 mg/kg/injection, schedule: Q04DX002 (ip), vehicle: saline 106 % of control

CC(=O)OC1=C(C)CCC1=O
inactive: [12] 89 % of control | [13] 95 % of control | [14] 89 % of control

CC(=O)Oc1ccc(/C=N/NC(N)=S)nc1
active: dose: 24.0 mg/kg/injection, schedule: Q03HX024 (ip), vehicle: saline with Tween-80 212 % of control | dose: 36.0 mg/kg/injection, schedule: Q03HX024 (ip), vehicle: saline with Tween-80 339 % of control

Source: PubChem BioAssay AID248 (DTP/NCI, 2004)
